# “And” between values parts separate entries of the source, which are not always exact repeats. Equal values may be shown once.
# Tested on: bovine IVF-oocytes
# Test: Example 8: Hb (1 μg/ml) in mBECM co-culture, oocytes collected in different months, pre-hatching development
# Assay type: cell-based
# Set-up: key to Least square mean ± SE of embryos developed to 8-cell / Least square mean ± SE of embryos developed to 16-cell / Least square mean ± SE of embryos developed to Morula / Least square mean ± SE of embryos developed to Blastocyst / Least square mean ± SE of embryos developed to 2-cell: mean of per-embryo scores: 1 = developed to stage, 0 = not developed
# Method: The basic medium used for maturation of oocytes was tissue culture medium (TCM)-199 with Earle's salts, buffered with 25 mM HEPES (Gibco BRL, Grand Island, N.Y.) and supplemented with 10% (v/v) heat-inactivated fetal bovine serum (FBS; Hyclone Laboratories, Logan, Utah), 1 μg/ml estradiol-17β (NOBL Laboratories, Sioux Center, Iowa), 3 μg/ml bovine FSH (NOBL Laboratories), 6 μg/ml bovine LH (NOBL Laboratories), and 25 μg/ml gentamycin (Sigma Chemical Co., St. Louis, Mo.). The basic medium used for treatment of spermatozoa and fertilization of oocytes was a modified Tyrode's medium (J. Parrish et al., Capacitation of bovine sperm by heparin. Biol. Reprod. 38:1171-1180 (1988)), supplemented with 0.25 mM sodium pyruvate (Gibco BRL), 6 mg/ml fatty acid (FA)-free BSA (No. A-6003, Sigma), 15 μg/ml calcium heparin from porcine intestinal mucosa (183 USP/mg; H-8398, Sigma), and 25 μg/ml gentamycin. Modified bovine embryo culture medium (mBECM) containing 10 μM β-mercaptoethanol was used for culture of embryos, as described in J. Lim et al., “Roles of growth factors in the development of bovine embryos fertilized in vitro and cultured singly in a defined medium,” Reprod. Fertil. Dev., 8:1199-1205 (1996). mBECM supplemented with 10% (v/v) FBS was used for co-culturing inseminated oocytes with CGC. Osmolarity of the medium was maintained within the range of 265-290 mOsm.
# All cumulus-oocyte complexes (COC) were collected in Madison, Wis. (BOMED, Inc.) and were shipped in 2 ml of maturation medium in a battery powered incubator via overnight express mail service. Oocytes matured during transit and arrived within 24 h after exposure to maturation medium, pre-equilibrated at 39° C. in 5% CO2 in air. At 22 to 24 h after exposure to the medium, the COCs were inseminated in vitro as described in J. Lim et al., “Intracytoplasmic glutathione concentration and the role of β-mercaptoethanol in preimplantation development of bovine embryos,” Theriogenology, 46:429-439 (1996). At 18 h post-insemination, COCs were cultured in groups (28-40 embryos) in a 4-well multidish (Nunc, Roskilde, Denmark) containing 0.8-ml of mBECM. Embryos were dislodged from CGC at 36 to 48 h post-insemination.
# In Example 8, bovine follicular oocytes were collected from November 1996 to May 1997, and matured and fertilized in culture. (Oocytes collected during summer and early fall were not used in this study, to avoid interference from environmental heat stress on in vitro survival of embryos.) IVF embryos were collected at 18 h post-insemination and cultured in mBECM supplemented with FBS (10%, v/v), to which 0 or 1 μg/ml Hb (from bovine, mainly methemoglobin, H-2500, Sigma Co.) was added. Development of embryos to the 2-cell, 8-cell, 16-cell, morula, and blastocyst stages was monitored 48, 60, 120, 144 and 192 h post-insemination, respectively. As a supplemental experiment, some blastocysts in each treatment (20 or 28) were randomly collected, and the cell number of the blastocysts was counted by use of Hoechst stain 33342 and a fluorescent microscope (Diaphod, Nikkon, Tokyo, Japan). This experiment used 1675 embryos in 25 replicates, with IVF embryos randomly allotted among treatments.
# Embryos developed to the 2-cell, 8-cell, 16-cell, morula, and blastocyst stages at the pertinent observation times were individually scored ‘1’ (developed). Embryos that had not developed to these stages at the same times were scored ‘0’ (non-developed). Sums of the scores at each stage of development were evaluated by analysis of variance using a general linear model (PROC-GLM) in the SAS statistical programming package (1991). In Example 8, the combined effects of Hb addition and month of oocyte collection were first examined in a 2×7 factorial arrangement. Overall differences in embryonic development in Hb-free and Hb-containing culture systems were further evaluated. […] Differences were regarded as statistically significant where P values were less than 0.05.
substance,measurement,setting,value
hemoglobin [Hb],Least square mean ± SE of embryos developed to 2-cell,April,0.70 ± 0.03
same,Least square mean ± SE of embryos developed to 8-cell,April,0.48 ± 0.03
same,Least square mean ± SE of embryos developed to 16-cell,April,0.39 ± 0.03
same,Least square mean ± SE of embryos developed to Blastocyst,April,0.25 ± 0.03
same,Least square mean ± SE of embryos developed to Morula,April,0.32 ± 0.03
same,Least square mean ± SE of embryos developed to 2-cell,December,0.79 ± 0.05
same,Least square mean ± SE of embryos developed to 8-cell,December,0.59 ± 0.05
same,Least square mean ± SE of embryos developed to 16-cell,December,0.53 ± 0.05
same,Least square mean ± SE of embryos developed to Blastocyst,December,0.36 ± 0.05
same,Least square mean ± SE of embryos developed to Morula,December,0.41 ± 0.05
same,Least square mean ± SE of embryos developed to 2-cell,February,0.77 ± 0.04
same,Least square mean ± SE of embryos developed to 8-cell,February,0.53 ± 0.04
same,Least square mean ± SE of embryos developed to 16-cell,February,0.44 ± 0.04
same,Least square mean ± SE of embryos developed to Blastocyst,February,0.35 ± 0.04
same,Least square mean ± SE of embryos developed to Morula,February,0.40 ± 0.04
same,Least square mean ± SE of embryos developed to 2-cell,January,0.70 ± 0.04
same,Least square mean ± SE of embryos developed to 8-cell,January,0.45 ± 0.04
same,Least square mean ± SE of embryos developed to 16-cell,January,0.42 ± 0.04
same,Least square mean ± SE of embryos developed to Blastocyst,January,0.28 ± 0.04
same,Least square mean ± SE of embryos developed to Morula,January,0.32 ± 0.04
same,Least square mean ± SE of embryos developed to 2-cell,March,0.58 ± 0.05
same,Least square mean ± SE of embryos developed to 8-cell,March,0.40 ± 0.06
same,Least square mean ± SE of embryos developed to 16-cell,March,0.31 ± 0.06
same,Least square mean ± SE of embryos developed to Blastocyst,March,0.20 ± 0.05
same,Least square mean ± SE of embryos developed to Morula,March,0.23 ± 0.06
same,Least square mean ± SE of embryos developed to 2-cell,May,0.70 ± 0.05
same,Least square mean ± SE of embryos developed to 8-cell,May,0.60 ± 0.05
same,Least square mean ± SE of embryos developed to 16-cell,May,0.49 ± 0.05
same,Least square mean ± SE of embryos developed to Blastocyst,May,0.40 ± 0.05
same,Least square mean ± SE of embryos developed to Morula,May,0.44 ± 0.05
same,Least square mean ± SE of embryos developed to 2-cell,November,0.89 ± 0.07
same,Least square mean ± SE of embryos developed to 8-cell,November,0.71 ± 0.08
same,Least square mean ± SE of embryos developed to 16-cell,November,0.60 ± 0.08
same,Least square mean ± SE of embryos developed to Blastocyst,November,0.34 ± 0.07
same,Least square mean ± SE of embryos developed to Morula,November,0.57 ± 0.08
same,"formation of blastocysts (least square mean), range over months","November-May, control 0.17-0.32",0.20-0.4
same,"formation of morulae (least square mean), range over months","November-May, control 0.2-0.37",0.23-0.57
same,Number of embryos developed to 2-cell,"all months overall, 831 embryos cultured, 48 h",601
same,Number of embryos developed to 8-cell,"all months overall, 831 embryos cultured, 60 h",427
same,Number of embryos developed to 16-cell,"all months overall, 831 embryos cultured, 120 h",358
same,Number of embryos developed to Morula,"all months overall, 831 embryos cultured, 144 h",300
same,Number of embryos developed to Blastocyst,"all months overall, 831 embryos cultured, 192 h",251
same,Least square mean ± SE of embryos developed to 2-cell,"all months overall, 48 h",0.73 ± 0.02
same,Least square mean ± SE of embryos developed to 8-cell,"all months overall, 60 h",0.54 and 0.54 ± 0.02
same,Least square mean ± SE of embryos developed to 16-cell,"all months overall, 120 h",0.45 and 0.45 ± 0.02
same,Least square mean ± SE of embryos developed to Morula,"all months overall, 144 h",0.39 and 0.39 ± 0.02
same,Least square mean ± SE of embryos developed to Blastocyst,"all months overall, 192 h",0.31 and 0.31±0.02
same,effect on development to the 2-cell stage,"all months overall, P>0.73",no significant effect
